We go through 6 compounds from patent US7897389B2, “Direct differentiation method for making cardiomyocytes from human embryonic stem cells” (Geron Corporation, priority 2008, dated 2011).

Each structure is given as a SMILES string.

Series [1] concerns Embryoid bodies from the H1 or H9 line. The procedure: Embryoid bodies from the H1 or H9 line were treated at differentiation day 1-4, 4-6 or 6-8 with 5-aza-deoxy-cytidine, a cytosine analog that affects DNA methylation. Cells were harvested at day 15, and analyzed for cardiac MHC by real-time RT-PCR.
Other reagents examined for an ability to induce cardiomyocyte differentiation included dimethyl sulfoxide (DMSO) and all-trans retinoic acid (RA).

Series [2] relates to hES-derived cardiomyocytes. Description: Chronotropic effects of cardioactive drugs on beating hES-derived cardiomyocytes. It counts as cell-based, human. As to conditions: for chronotropic effect on beating rate: FIG. 2 Panels B-E. How it is done:
The function of hES-derived cardiomyocytes was tested by determining whether the cardiomyocytes respond appropriately to the chronotropic effects of cardioactive drugs.
When cells were treated with 10^−5 M diltiazem, 100% of the beating areas stopped contraction. […] Thus, the hES cell derived cells respond to cardioactive drugs in a manner appropriate for cells of the cardiomyocyte lineage.

As for `Nc1ncn([C@H]2C[C@H](O)[C@@H](CO)O2)c(=O)n1` [5-aza-deoxy-cytidine], the “proportion of beating areas in the culture” value in series [1] (1 to 10 μM at day 6-8) is on record as “increased”. Further, in series [1] (1 to 10 μM at day 6-8, harvested day 15, real-time RT-PCR), the “expression of cardiac α-MHC” value is “significantly increased”. Regarding `C[S+](C)[O-]` [DMSO, dimethyl sulfoxide], the “beating areas vs non-treated cultures” value in series [1] (0.5% from days 0-4) is on record as “fewer beating areas”. In series [1] (0.8% or 1%), the beating cells result is “absent”. The “α-MHC expression compared with untreated cultures” value in series [1] (DMSO treatment) was “significant reduction”. As for `CC1=C(/C=C/C(C)=C/C=C/C(C)=C/C(=O)O)C(C)(C)CCC1` [RA, all-trans retinoic acid], the “toxicity to the cells” value in series [1] is on record as “toxic”. In addition, in series [1] (10^−9 to 10^−5 M, days 4-8, 8-15, or 4-15), the “beating cells compared with untreated cultures” value was “no increase in beating cells”. In the case of `COc1ccc([C@@H]2Sc3ccccc3N(CCN(C)C)C(=O)[C@@H]2OC(C)=O)cc1` [diltiazem], the beating rate entry in series [2] (FIG. 2 Panel A, concentration-dependent) is recorded as “inhibited”.

Regarding `CC(C)NCC(O)c1ccc(O)c(O)c1` (stereo not shown) [isoprenaline], the “chronotropic effect on beating rate” value in series [2] is on record as “positive chronotropic effects”. On the same count and under the same terms, then `CNC[C@H](O)c1cccc(O)c1` [phenylephrine], with “positive chronotropic effects”.
